# US20230027026A1, “FUSED PYRIMIDINE COMPOUNDS, COMPOSITIONS AND MEDICINAL APPLICATIONS THEREOF” (JUBILANT BIOSYS LIMITED, priority 2019, published 2023)
# What was measured:
# [1] = biological target: HER2 (A775_G776insYVMA) expressing Ba/F3 stable cell line (Homo sapiens, UniProt P04626, DUP772-775, cells depend on it); test: Cellular proliferation (Alamar Blue) assay, HER2 YVMA Ba/F3; format: cell-based; conditions: HER2 A775_G776insYVMA Ba/F3, 72 hr, read-out: YVMA IC50
# How it was run: (§1)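 Fluorescence read-out (ex 540/em 590 nm) after 3 h Alamar Blue incubation, following 72 h compound exposure at 37 °C, 5% CO2. Final compound range 10–0.0005 μM, 3-fold steps; Ba/F3 cells plated 15,000/well in RPMI + 10% FBS overnight beforehand.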
# [2] = biological target: EGFR(D770_N771insSVD) expressing Ba/F3 stable cell line (Homo sapiens, UniProt P00533, DUP768-770, cells depend on it); test: Cellular proliferation (Alamar Blue) assay, EGFR D770_N771insSVD Ba/F3; format: cell-based; conditions: EGFR D770_N771insSVD Ba/F3, 72 hr, read-out: D770 IC50
# How it was run: as §1
# [3] = tested on: H1975 cells (L858R_T790M mutant); test: H1975 proliferation assay; format: cell-based; conditions: Homo sapiens, NCI-H1975; read-out: Proliferation_Assay H1975 cells-EC50_nM L858R_T790M_mutant
# EGFR (T790M/L858R) = biological target: T1, EGFR (T790M/L858R) (Homo sapiens, UniProt P00533, L858R/T790M); test: EGFR L858R/T790M enzyme inhibition assay (HTRF); format: biochemical; conditions: 5 μM ATP, 60 min, read-out: EGFR_L858R T790M_IC50_nM
# T1 construct: GST; purchased Proqinase
# How it was run: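 HTRF kinase assay with 2.5 nM GST-EGFR T790M/L858R, 0.5 μM biotinylated gastrin peptide and 5 μM ATP in HEPES pH 7.4 with Mg/Mn, 60 min at room temperature; compounds from 10 μM top. Phosphotyrosine detected by Eu anti-pTyr/SA-APC; IC50 from % inhibition.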
# A431 cells = test: Cellular proliferation (Alamar Blue) assay, A431; format: cell-based; conditions: Homo sapiens, A-431; A431 cells, 72 hr, Alamar Blue; read-out: A431 IC50
# How it was run: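 Seventy-two-hour growth assay with 3-fold compound titration (final 10–0.0005 μM) and Alamar Blue fluorescence end point, ex 540/em 590 nm.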
# [4] = biological target: EGFR (A767_dupASV) expressing Ba/F3 stable cell line (Homo sapiens, UniProt P00533, DUP767-769, cells depend on it); test: Cellular proliferation (Alamar Blue) assay, EGFR A767_dupASV Ba/F3; format: cell-based; conditions: EGFR A767_dupASV Ba/F3, 72 hr, read-out: A767 IC50
# How it was run: as §1
# BT-474 cells = test: Cellular proliferation (Alamar Blue) assay, BT-474; format: cell-based; conditions: Homo sapiens
# Description: (§2) Example 3: Cellular Proliferation (Alamar Blue) Assays
# (§3) • 1. EGFR(D770_N771insSVD) expressing Ba/F3 stable cell line • 2. EGFR (A767_dupASV) expressing Ba/F3 stable cell line • 3. A431 cells • 4. BTER2 (A775_G776insYVMA) expressing Ba/F3 stable cell line • 5. BTER2 (WT) expressing Ba/F3 stable cell line • 6. BT-474 cells
# (§4) • 1. Seed cells at 5000 for A431 and 15,000 cells for Ba/F3 in 100 μL/well in complete media (for A431: DMEM with 10% FBS and for Ba/F3 cells: RPMI with 10% FBS) in 96-well tissue culture plate. Leave outer wells without cells for background measurements. Incubate at 37 degree Celsius in 5% CO2 humidified incubator for 16-18 hours. • 2. Add 0.025 ml of 5× concentration compound dilution or DMSO control. Final compound concentration range is 10-0.0005 μM prepared in 3-fold serial dilutions. Incubate for 72 hr at 37 degree Celsius in […] humidified incubator. • 3. Add 0.0125 mL Alamar Blue™ reagent to each well with multi-channel pipette and tap gently on each side of the plate to mix. Incubate for 3 hours at 37 degree Celsius in […] humidified incubator. • 4. Read plates on fluorescence reader (Tecan Spark Control, Device: Spark, Serial #: 1801006040) at 540 nm excitation, 590 nm emission wavelength. • 5. Data analysis was performed using XLfit 5.5.0.5.
# [5] = biological target: HER2 (WT) expressing Ba/F3 stable cell line (Homo sapiens, UniProt P04626); test: Cellular proliferation (Alamar Blue) assay, HER2 WT Ba/F3; format: cell-based; conditions: HER2 WT Ba/F3, 72 hr, read-out: HER2 WT Ba/F3 IC50
# Description: as §2, §3, §4
# HER2 (WT) expressing Ba/F3 stable cell line, sequence (P04626 whole entry, change not shown): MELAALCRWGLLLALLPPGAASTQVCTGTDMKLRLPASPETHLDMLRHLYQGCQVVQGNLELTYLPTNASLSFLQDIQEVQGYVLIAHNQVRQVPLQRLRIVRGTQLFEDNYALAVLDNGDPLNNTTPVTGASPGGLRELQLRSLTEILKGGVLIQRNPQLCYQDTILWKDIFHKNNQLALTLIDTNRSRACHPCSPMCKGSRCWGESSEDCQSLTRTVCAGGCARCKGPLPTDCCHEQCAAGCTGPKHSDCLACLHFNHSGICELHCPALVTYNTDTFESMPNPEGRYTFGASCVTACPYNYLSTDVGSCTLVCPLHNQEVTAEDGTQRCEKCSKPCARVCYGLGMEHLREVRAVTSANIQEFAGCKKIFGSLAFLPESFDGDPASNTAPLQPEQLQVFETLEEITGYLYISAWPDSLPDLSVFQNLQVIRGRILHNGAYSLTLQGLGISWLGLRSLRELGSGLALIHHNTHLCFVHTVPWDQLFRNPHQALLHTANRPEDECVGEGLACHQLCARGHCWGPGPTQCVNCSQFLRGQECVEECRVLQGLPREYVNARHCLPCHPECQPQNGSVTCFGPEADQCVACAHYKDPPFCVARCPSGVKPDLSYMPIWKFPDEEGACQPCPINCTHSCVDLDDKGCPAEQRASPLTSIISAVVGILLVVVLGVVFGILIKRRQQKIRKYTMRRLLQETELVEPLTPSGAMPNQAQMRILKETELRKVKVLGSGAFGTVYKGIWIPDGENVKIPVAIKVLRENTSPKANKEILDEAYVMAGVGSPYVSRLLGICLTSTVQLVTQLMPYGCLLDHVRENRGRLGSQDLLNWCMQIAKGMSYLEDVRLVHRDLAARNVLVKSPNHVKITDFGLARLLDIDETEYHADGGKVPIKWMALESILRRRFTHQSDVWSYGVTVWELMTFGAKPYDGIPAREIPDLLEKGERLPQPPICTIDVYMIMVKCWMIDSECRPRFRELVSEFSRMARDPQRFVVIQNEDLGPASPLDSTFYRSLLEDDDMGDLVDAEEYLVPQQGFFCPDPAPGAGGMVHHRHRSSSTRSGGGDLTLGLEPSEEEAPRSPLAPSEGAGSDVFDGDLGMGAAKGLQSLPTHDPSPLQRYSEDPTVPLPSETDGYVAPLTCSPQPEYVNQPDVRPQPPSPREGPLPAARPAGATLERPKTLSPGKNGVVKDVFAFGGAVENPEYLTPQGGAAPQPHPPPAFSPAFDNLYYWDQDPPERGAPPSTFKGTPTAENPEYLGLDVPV
# HER2 (A775_G776insYVMA) expressing Ba/F3 stable cell line, sequence (P04626 with tags, fused parts or gaps DUP772-775): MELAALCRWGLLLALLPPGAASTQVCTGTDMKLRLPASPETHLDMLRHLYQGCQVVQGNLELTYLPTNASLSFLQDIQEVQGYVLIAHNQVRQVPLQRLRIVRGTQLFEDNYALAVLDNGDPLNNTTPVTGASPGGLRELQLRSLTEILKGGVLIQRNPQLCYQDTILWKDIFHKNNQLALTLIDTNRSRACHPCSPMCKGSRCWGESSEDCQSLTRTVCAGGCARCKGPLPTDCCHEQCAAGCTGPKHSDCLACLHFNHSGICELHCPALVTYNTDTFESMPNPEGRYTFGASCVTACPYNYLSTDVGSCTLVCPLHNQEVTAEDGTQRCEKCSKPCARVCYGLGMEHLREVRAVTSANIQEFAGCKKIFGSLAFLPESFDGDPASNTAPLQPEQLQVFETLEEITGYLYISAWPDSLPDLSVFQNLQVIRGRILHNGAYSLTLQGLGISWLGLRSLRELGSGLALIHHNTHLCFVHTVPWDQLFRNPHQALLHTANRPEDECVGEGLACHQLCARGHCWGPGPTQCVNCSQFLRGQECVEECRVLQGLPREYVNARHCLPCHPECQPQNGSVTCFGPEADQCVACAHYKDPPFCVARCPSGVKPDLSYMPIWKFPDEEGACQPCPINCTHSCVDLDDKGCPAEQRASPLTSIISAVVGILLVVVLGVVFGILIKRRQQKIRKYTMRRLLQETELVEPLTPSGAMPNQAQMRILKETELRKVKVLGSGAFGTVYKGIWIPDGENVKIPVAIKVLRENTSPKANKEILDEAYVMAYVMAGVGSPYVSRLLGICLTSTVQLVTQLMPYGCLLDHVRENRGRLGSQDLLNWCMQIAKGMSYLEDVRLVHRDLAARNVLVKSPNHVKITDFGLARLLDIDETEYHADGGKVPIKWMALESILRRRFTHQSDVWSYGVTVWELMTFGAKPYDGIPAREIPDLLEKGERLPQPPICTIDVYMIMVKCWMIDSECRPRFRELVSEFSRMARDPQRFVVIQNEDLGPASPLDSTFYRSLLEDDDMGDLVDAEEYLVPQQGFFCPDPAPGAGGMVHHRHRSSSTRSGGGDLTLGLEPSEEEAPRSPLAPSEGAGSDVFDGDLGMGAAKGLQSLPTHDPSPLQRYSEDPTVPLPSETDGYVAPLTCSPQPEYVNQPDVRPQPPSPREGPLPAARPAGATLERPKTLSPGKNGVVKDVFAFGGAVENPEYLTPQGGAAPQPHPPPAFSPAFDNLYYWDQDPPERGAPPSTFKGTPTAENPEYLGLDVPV
# EGFR(D770_N771insSVD) expressing Ba/F3 stable cell line, sequence (P00533 with tags, fused parts or gaps DUP768-770): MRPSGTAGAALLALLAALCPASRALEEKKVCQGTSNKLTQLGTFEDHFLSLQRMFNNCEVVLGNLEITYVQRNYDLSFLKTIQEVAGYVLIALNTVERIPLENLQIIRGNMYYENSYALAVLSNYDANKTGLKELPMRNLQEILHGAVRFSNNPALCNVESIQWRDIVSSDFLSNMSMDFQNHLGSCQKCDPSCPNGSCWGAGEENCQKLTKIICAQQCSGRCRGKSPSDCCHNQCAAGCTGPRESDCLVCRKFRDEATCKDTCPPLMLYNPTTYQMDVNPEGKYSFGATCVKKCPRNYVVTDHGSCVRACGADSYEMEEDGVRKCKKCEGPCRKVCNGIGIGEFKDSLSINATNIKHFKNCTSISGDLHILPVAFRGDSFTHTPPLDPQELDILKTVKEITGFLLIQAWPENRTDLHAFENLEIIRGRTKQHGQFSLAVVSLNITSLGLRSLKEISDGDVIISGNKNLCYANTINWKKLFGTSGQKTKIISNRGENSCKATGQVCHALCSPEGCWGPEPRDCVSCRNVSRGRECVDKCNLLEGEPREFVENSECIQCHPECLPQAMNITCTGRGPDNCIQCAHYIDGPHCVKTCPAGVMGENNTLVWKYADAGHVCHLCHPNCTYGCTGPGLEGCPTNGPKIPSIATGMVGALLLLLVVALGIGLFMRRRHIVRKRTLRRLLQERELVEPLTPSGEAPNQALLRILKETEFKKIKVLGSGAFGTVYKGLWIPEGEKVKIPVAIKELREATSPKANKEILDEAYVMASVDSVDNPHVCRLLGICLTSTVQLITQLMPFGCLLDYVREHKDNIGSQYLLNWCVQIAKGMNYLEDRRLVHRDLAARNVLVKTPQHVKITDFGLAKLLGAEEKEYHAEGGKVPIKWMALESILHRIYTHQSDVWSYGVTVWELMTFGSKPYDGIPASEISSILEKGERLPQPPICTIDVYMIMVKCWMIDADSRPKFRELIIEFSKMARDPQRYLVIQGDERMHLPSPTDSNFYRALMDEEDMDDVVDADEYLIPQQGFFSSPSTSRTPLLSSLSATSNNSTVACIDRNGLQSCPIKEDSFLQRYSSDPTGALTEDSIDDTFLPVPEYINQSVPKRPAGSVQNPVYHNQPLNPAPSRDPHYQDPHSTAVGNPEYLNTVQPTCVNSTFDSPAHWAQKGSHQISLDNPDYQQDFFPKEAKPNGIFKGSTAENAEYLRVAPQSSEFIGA
# T1 sequence (P00533 25-1210 T790M/L858R): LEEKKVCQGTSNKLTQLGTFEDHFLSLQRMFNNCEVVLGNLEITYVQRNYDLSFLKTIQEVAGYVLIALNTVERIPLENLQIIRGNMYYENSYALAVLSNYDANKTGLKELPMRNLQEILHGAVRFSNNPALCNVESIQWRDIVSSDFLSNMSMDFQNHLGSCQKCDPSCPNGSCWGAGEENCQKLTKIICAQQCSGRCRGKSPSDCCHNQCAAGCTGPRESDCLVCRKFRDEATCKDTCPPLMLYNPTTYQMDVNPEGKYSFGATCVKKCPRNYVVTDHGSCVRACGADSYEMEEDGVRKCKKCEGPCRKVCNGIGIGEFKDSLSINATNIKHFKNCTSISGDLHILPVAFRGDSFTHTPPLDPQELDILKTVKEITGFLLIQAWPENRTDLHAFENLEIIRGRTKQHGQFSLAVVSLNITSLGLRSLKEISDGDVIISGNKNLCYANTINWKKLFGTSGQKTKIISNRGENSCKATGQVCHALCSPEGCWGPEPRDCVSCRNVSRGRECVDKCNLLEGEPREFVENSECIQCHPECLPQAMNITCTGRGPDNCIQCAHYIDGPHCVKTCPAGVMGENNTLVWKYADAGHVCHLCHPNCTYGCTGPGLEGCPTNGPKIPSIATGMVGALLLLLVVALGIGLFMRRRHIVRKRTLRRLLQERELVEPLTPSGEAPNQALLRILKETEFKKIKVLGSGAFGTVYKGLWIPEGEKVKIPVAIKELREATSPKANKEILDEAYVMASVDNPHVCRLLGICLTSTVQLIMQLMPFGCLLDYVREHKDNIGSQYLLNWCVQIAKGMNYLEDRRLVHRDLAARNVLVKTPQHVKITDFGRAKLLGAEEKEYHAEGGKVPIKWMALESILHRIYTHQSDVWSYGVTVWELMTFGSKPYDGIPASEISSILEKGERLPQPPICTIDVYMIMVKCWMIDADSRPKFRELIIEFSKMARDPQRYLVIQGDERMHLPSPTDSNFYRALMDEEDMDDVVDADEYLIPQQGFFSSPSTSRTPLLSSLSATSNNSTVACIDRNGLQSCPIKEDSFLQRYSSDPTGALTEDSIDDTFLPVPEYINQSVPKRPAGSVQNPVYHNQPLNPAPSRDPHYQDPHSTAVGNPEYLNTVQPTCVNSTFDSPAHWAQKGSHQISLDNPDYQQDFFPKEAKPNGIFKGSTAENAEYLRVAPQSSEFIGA
GI50 [1],GI50 [2],EC50 [3],IC50 (EGFR (T790M/L858R)),IC50 (A431 cells),GI50 [4],IC50 (BT-474 cells),GI50 [5],SMILES
14.9 nM,35 nM,2 nM,1 nM,595 nM,34 nM,4.1 nM,0.7 nM,"CN(C)C/C=C/C(=O)Nc1cccc(N2C(=O)N(Cc3ccccc3)Cc3cnc(Nc4cn(C)nc4Cl)nc32)c1 [Compound 20, (E)-N-(3-(3-benzyl-7-((3-chloro-1-methyl-1H-pyrazol-4-yl)amino)-2-oxo-3,4-dihydropyrimido[4,5-d]pyrimidin-1(2H)-yl)phenyl)-4-(dimethylamino)but-2-enamide]"
9.9 nM,4 nM,6.8 nM,0.4 nM,65 nM,14 nM,7.7 nM,< 0.5 nM,"C=CC(=O)Nc1cccc(N2C(=O)N(Cc3ccccc3)Cc3cnc(Nc4cnn(C)c4)nc32)c1 [Compound 1, N-(3-(3-benzyl-7-((1-methyl-1H-pyrazol-4-yl)amino)-2-oxo-3,4-dihydropyrimido[4,5-d]pyrimidin-1(2H)-yl)phenyl)acrylamide]"
